No end group written: not given here.
Key:
[1] = tested on: E. faecalis JH2-2; assay: microbe, parasite or virus in culture; type: cell-based, Enterococcus faecalis
Procedure: (§1) Prioritised helminth AMP-LPs were synthesised at >70% purity (Genosphere Biotechnologies). […] Peptides and control antibiotics [Ciprofloxacin (for gram-negative species; Sigma-Aldrich) and Vancomycin hydrochloride (for gram-positive species; Sigma-Aldrich)] were dissolved in sterile ultrapure water at a concentration of 5.12mg/ml. Minimum inhibitory concentrations (MICs) were determined for gram-positive and gram-negative bacterial isolates (see Table 3 for species) using microbroth dilution assays as described previously. Briefly, a single colony from each bacterial species was inoculated in cation-adjusted Mueller Hinton Broth (MHB) and grown for 18–24 hours at 37°C with shaking (225rpm) before being adjusted to a final bacterial density of 5x10^5 colony forming units (CFU) per ml. Peptides and Vancomycin hydrochloride were diluted using sterile MHB in sterile U-bottom 96 well polypropylene microplates (Greiner Bio One, UK) to give a concentration gradient ranging from 512–0.25μg/ml. Ciprofloxacin was further diluted in sterile MHB to give a concentration gradient ranging from 32–0.02μg/ml. Microplates were incubated at 37°C for 18–24 hours. Plates were assessed for visible growth and the MIC was defined as the lowest concentration of peptide or antibiotic that inhibited visible growth of a bacterial culture after an 18–24-hour incubation. MIC data were validated by positive and negative control antibiotic MIC data for each bacterial isolate.

[2] = tested on: gram-positive and gram-negative bacterial isolates; type: cell-based
Procedure: as §1, with “MIC data were validated by positive and negative control antibiotic MIC data for each bacterial isolate.” left out

[3] = Computationally predicted from Kunitz inhibitor protein; ref [21]; cited from earlier work
Text: Table 4 Reported AMPs from Schistosoma mansoni. | column: Activity reported

[4] = tested on: E. coli K12; assay: Minimum inhibitory concentration, microbroth dilution; type: cell-based, Escherichia coli; conditions: cation-adjusted MHB, 5x10^5 CFU/ml, 37°C, 18–24 h, visible growth; for MIC E. coli K12 (-): peptides 512–0.25μg/ml, >70% purity (Cecropin P1 >95%), Ciprofloxacin 32–0.02μg/ml
Procedure: as §1

[5] = tested on: A. baumannii DSM 30007; assay: as above; type: cell-based, Acinetobacter baumannii; conditions: cation-adjusted MHB, 5x10^5 CFU/ml, 37°C, 18–24 h, visible growth; for MIC A. baumannii DSM 30007 (-): peptides 512–0.25μg/ml, >70% purity (Cecropin P1 >95%), Ciprofloxacin 32–0.02μg/ml
Procedure: as §1

[6] = tested on: P. aeruginosa PA01; assay: as above; type: cell-based, Pseudomonas aeruginosa; conditions: cation-adjusted MHB, 5x10^5 CFU/ml, 37°C, 18–24 h, visible growth; for MIC P. aeruginosa PA01 (-): peptides 512–0.25μg/ml, >70% purity (Cecropin P1 >95%), Ciprofloxacin 32–0.02μg/ml
Procedure: as §1

[7] = tested on: S. aureus EMRSA-15; assay: microbe, parasite or virus in culture; type: cell-based, Staphylococcus aureus; conditions: Methicillin-resistant, microbroth dilution, cation-adjusted MHB, 5x10^5 CFU/ml, 37°C, 18–24 h, visible growth; for MIC S. aureus EMRSA-15 (+): peptides and Vancomycin hydrochloride 512–0.25μg/ml, peptides >70% purity (Cecropin P1 >95%)
Procedure: as §1

[8] = tested on: S. aureus RN4220; assay: microbe, parasite or virus in culture; type: cell-based, Staphylococcus aureus; conditions: Methicillin-Sensitive, microbroth dilution, cation-adjusted MHB, 5x10^5 CFU/ml, 37°C, 18–24 h, visible growth; for MIC S. aureus RN4220 (+): peptides and Vancomycin hydrochloride 512–0.25μg/ml, peptides >70% purity (Cecropin P1 >95%)
Procedure: as §1

[9] = microbroth dilution, cation-adjusted MHB, 5x10^5 CFU/ml, 37°C, 18–24 h, visible growth, peptides and Vancomycin hydrochloride 512–0.25μg/ml, peptides >70% purity (Cecropin P1 >95%)

Row | Substance | MIC E. coli K12 (-) [4] | MIC A. baumannii DSM 30007 (-) [5] | MIC P. aeruginosa PA01 (-) [6] | MIC S. aureus EMRSA-15 (+) [7] | MIC S. aureus RN4220 (+) [8] | MIC E. faecalis JH2-2 (+) [1, 9] | further results
1 | GFGKWVKKKWGSVRKGASKLVKGVKKVFPKKGIPIIRYERRF [nAMP-LP-249] |  |  |  |  |  |  | MIC E. faecalis JH2-2 (+) ([1]; JH2-2): 16 µg/mL; MIC against gram-negative species screened [2]: 8 µg/mL
2 | GILDIKNKVSNLF [Schistocin-3] |  |  |  |  |  |  | Activity reported [3]: Antibacterial Antifungal
3 | GILDIKNKVSNLFKKIK [Schistocin-2] |  |  |  |  |  |  | Activity reported [3]: Antifungal
4 | GILDIKNKVSNLFKKIKGEK [Schistocin-1] |  |  |  |  |  |  | Activity reported (all activity) [3]: All activity >100μM
5 | GLGKSLKKIGRKIDKGFRKIRDRAGASVSFGSGQKPQGSIQISPV-NH2 [nAMP-LP-617] | 4 µg/mL | 8 µg/mL | 32 µg/mL | / (/ indicates that there was no activity at the highest concentration of peptide used (512μg/ml)) | / (/ indicates that there was no activity at the highest concentration of peptide used (512μg/ml)) | / (/ indicates that there was no activity at the highest concentration of peptide used (512μg/ml)) | MIC ([4]; read-out: MIC E. coli K12 (-), μM in brackets): 1 µM; MIC ([5]; read-out: MIC A. baumannii DSM 30007 (-), μM in brackets): 2 µM; MIC ([6]; read-out: MIC P. aeruginosa PA01 (-), μM in brackets): 7 µM; MIC against gram-negative species screened [2]: 4 to 32 µg/mL
6 | GTFWKAVGAGALIGGGAALLSKAFK[nh2] [nAMP-LP-18, nematode AMP-like peptide identified in four Meloidogyne species] | / (/ indicates that there was no activity at the highest concentration of peptide used (512μg/ml)) | / (/ indicates that there was no activity at the highest concentration of peptide used (512μg/ml)) | / (/ indicates that there was no activity at the highest concentration of peptide used (512μg/ml)) | 64 µg/mL | 64 µg/mL | 64 µg/mL | MIC S. aureus EMRSA-15 (+), μM in brackets [7]: 27 µM; MIC S. aureus RN4220 (+), μM in brackets [8]: 27 µM; MIC E. faecalis JH2-2 (+), μM in brackets ([1]; microbroth dilution, cation-adjusted MHB, 5x10^5 CFU/ml, 37°C, 18–24 h, visible growth): 27 µM
7 | ISKFLKGAAIAGGLAVAGAVAYKAYKNYKKNQEQQAAATGRK [nAMP-LP-11, nematode AMP-like peptide selected for synthesis and MIC screening] | / (/ indicates that there was no activity at the highest concentration of peptide used (512μg/ml)) | / (/ indicates that there was no activity at the highest concentration of peptide used (512μg/ml)) | / (/ indicates that there was no activity at the highest concentration of peptide used (512μg/ml)) | / (/ indicates that there was no activity at the highest concentration of peptide used (512μg/ml)) | / (/ indicates that there was no activity at the highest concentration of peptide used (512μg/ml)) | / (/ indicates that there was no activity at the highest concentration of peptide used (512μg/ml)) | 

— article PMC10414684, “Novel integrated computational AMP discovery approaches highlight diversity in the helminth AMP repertoire” (PLOS Pathogens, 2023)
